According to patent US7772383B2, “Chemical PCR: Compositions for enhancing polynucleotide amplification reactions” (The Trustees of Princeton University, priority 2002, dated 2010):

Legend:
Format in all cases: biochemical
[1] = tested on: human prostate-specific membrane antigen (PSM) cDNA; experiment: Pilot low temperature PCR of PSM with 1,5-pentanediol; details: for PSM Specificity: densitometric volume of target band as percent of total volume; for PSM Potency: normalized: 1,3-butanediol (95/72° C.) = 1
Experimental: (§1) Amplification reactions were carried out under the following general conditions. Those skilled in the art will appreciate, however, that to the extent that the conditions (set forth in this application) required for specific experiments described in this example were inconsistent with the following general conditions, limited exceptions to the following general conditions were made The general conditions were as follows: 10 Mm Tris-HCl (Ph 8.8), 50 Mm KCl, 1.5 Mm MgCl2, 0.01% (w/v) gelatin, 0.2 Um primers, 0.06 ng/ul template, 0.2 Mm each Dntp, 0.04 U/ul Taq polymerase. The templates used were bovine brain N-WASP cDNA (1518 bp), a 996 by segment of human myeloid leukocyte c-jun cDNA, a 511 by segment of human prostate-specific membrane antigen (PSM) cDNA, and bovine brain glycolipid transfer protein (GTP) cDNA (660 bp). cDNA synthesis was carried out using the FIRST-STRAND® RT-PCR kit from Stratagene on the respective mRNAs purchased from Clontech. All amplification reactions for gene were carried out using a single master batch of cDNA. Taq polymerase and dNTPs were obtained from Stratagene. Primers were obtained from Genosys. Primer melting temperatures (Tms) were calculated using the Genosys oligo calculator program. The sequences of the primers were as follows.
(§2) Polymerase chain reactions for the N-WASP gene were conducted on a ROBOCYCLER® Gradient 40 thermal cycler from Stratagene using 100 ul solutions in 600 ul thin-walled tubes. For expediency, amplification of c-jun, PSM and GTP was carried out in a ROBOCYCLER® Gradient 96 thermal cycler from Stratagene using 50 ul solutions in 200 ul thin-walled tubes. Prior to Taq polymerase addition, a hotstart protocol was carried out that consisted of an initial cycle of 95° C. for 5 minutes (11) to ensure complete first-strand separation, followed by a cycle of 54° C. for 5 minutes. Amplifications were run for 30 cycles. Denaturation was done for 1 minute at the minimum temperatures that yielded discernable amplification: 92° C. for N-WASP and 95° C. for c-jun, PSM and GTP. Extension was done at 72° C. for periods depending on target length: 2 minutes for N-WASP, 1.5 minutes for c-jun and GTP, and 1 minute for PSM. Annealings were carried out either at fixed concentrations of additives using temperature gradients of 38-56° C. for N-WASP and 44-58° C. for the other targets, or at varying concentrations of additives using fixed temperatures of 41° C. for N-WASP, 50° C. for c-jun and PSM, and 54° C. for GTP.
(§3) Amplification products were analyzed by agarose gel electrophoresis on 0.8% agarose gels in which 20 ul reaction products were loaded with 4 ul loading buffer. Gels were stained with ethidium bromide, visualized on a UV transilluminator (Fisher), and documented by photography. Densitometric quantitation of amplification products was carried out using IMAGE SCANNER® and IMAGE MASTER® software from Amersham Pharmacia. Background correction was done using the software's rolling disc method. […] GTP was used as the target because it has the lowest GC content of the three templates used. PCR reactions were carried out in the presence of 1.0 and 1.5M 1,5-pentanediol under the conditions of 85° C. denaturing and 53° C. extension, using a 50° C. annealing temperature. In addition, 1.5M and 2.0M 1,5-pentandediol were tested using an 80° C. denaturing temperature, with identical annealing and extension temperature. Finally, 2.0, 2.5, and 3.0M 1,5-pentanediol were tested in GTP amplification employing a 75° C. denaturation temperature.
PSM was also tested with 1.0 and 1.5M 1,5-pentanediol using a 85° C. denaturing/50° C. annealing/53° C. extension. The denaturation temperature was then lowered to 80° C., and 2.5M 1,5-pentanediol tested. Amplification of PSM using a 75° C. denaturing temperature was not attempted.

[2] = tested on: bovine brain glycolipid transfer protein (GTP) cDNA (660 bp); experiment: Pilot low temperature PCR of GTP with 1,5-pentanediol; details: normalized: 1,5-pentanediol (95/72° C.) = 1
Experimental: as §1, §2, §3

[3] = tested on: human myeloid leukocyte c-jun cDNA; experiment: PCR amplification of c-jun with lower denaturation/extension temperatures; details: for Potency: annealing 50° C.
Experimental: as §1, §2
Amplification products were analyzed by agarose gel electrophoresis on 0.8% agarose gels in which 20 ul reaction products were loaded with 4 ul loading buffer. […] Densitometric quantitation of amplification products was carried out using IMAGE SCANNER® and IMAGE MASTER® software from Amersham Pharmacia. […]

[4] = 80/50/53° C., 2.5 M 1,5-pentanediol
[5] = 85/50/53° C., 1.5 M 1,5-pentanediol
[6] = 85/50/53° C., 1.5 M 1,5-pentanediol, listed as 1,5-pentanediol

OCCCCCO [1,5-Pentanediol]
PSM Specificity [1, 4]: 92% | PSM Potency [1, 4]: 1.40 | PSM Potency ([1]; 80/50/53° C., 2.5 M 1,5-pentanediol, listed as 1,5-pentanediol): Substantial amplification | PSM Potency ([1]; 85/50/53° C., 1.0 M 1,5-pentanediol): 0.00 | PSM Potency ([1]; 85/50/53° C., 1.0 M 1,5-pentanediol, listed as 1,5-pentanediol): did not amplify the target sequence | PSM Specificity [1, 5]: 86% | PSM Potency [1, 5]: 2.08 | PSM Potency [1, 6]: successful | GTP Potency ([2]; 75/50/53° C., 2.0 M 1,5-pentanediol): 0.00 | GTP Potency ([2]; 75/50/53° C., 2.0 M 1,5-pentanediol, listed as 1,5-pentanediol): unsuccessful | GTP Potency ([2]; 75/50/53° C., 2.5 M 1,5-pentanediol): 0.00 | GTP Potency ([2]; 75/50/53° C., 2.5 M 1,5-pentanediol, listed as 1,5-pentanediol): unsuccessful | GTP Potency ([2]; 75/50/53° C., 3.0 M 1,5-pentanediol): 0.53 | GTP Potency ([2]; 75/50/53° C., 3.0 M 1,5-pentanediol, listed as 1,5-pentanediol): succeeded in producing amplification | GTP Potency ([2]; 80/50/53° C., 1.5 M 1,5-pentanediol): 0.00 | GTP Potency ([2]; 80/50/53° C., 1.5 M 1,5-pentanediol, listed as 1,5-pentandediol): failed to produce any discernable amplification | GTP Potency ([2]; 80/50/53° C., 2.0 M 1,5-pentanediol): 2.69 | GTP Potency ([2]; 80/50/53° C., 2.0 M 1,5-pentanediol, listed as 1,5-pentandediol): high yield | GTP Potency ([2]; 85/50/53° C. denaturation/annealing/extension, 1.0 M 1,5-pentanediol): 2.78 | GTP Potency ([2]; 85/50/53° C. denaturation/annealing/extension, 1.0 M 1,5-pentanediol, listed as 1,5-pentanediol): strong amplification | GTP Potency [2, 5]: 2.64 | GTP Potency [2, 6]: strong amplification

CCC(O)CO (centres unmarked) [1,2-Butanediol]
Potency ([3]; 92/62° C. denaturation/extension, normalized: 1,5-pentanediol (95/72° C.) = 1): 0.91 | Potency ([3]; 92/62° C. denaturation/extension, normalized: 1,5-pentanediol (95/72° C.) = 1, listed as 1,2-butanediol): High product yield | Effective ([3]; 92/62° C., concentration interval over which target band minus control is at least 50% of maximum volume): 0.72-1.02 | Potency ([3]; 92/72° C. denaturation/extension, normalized: 1,5-pentanediol (95/72° C.) = 1): 0.00
